Like-named read-outs stand apart in the source and are kept apart here.
Key:
patients with CHF [1] = assay: U.S. Carvedilol Heart Failure Trials: mortality studies in CHF patients; type: in vivo, human; details: for Risk reduction of mortality / Risk reduction, All Cause Mortality: vs placebo; for All Cause Mortality (%) / Risk reduction, All Cause Mortality: all patients; for All Cause Mortality (%): class II-IV CHF, intention-to-treat, placebo 8.2%; for Risk reduction, All Cause Mortality: 95% CI 42-81
From the text: To determine if β-adrenergic blockade might inhibit the deleterious effects of the sympathetic nervous system on survival in heart failure (CHF), 1052 patients with CHF were prospectively enrolled into a multicenter trial program, in which the patients were randomly assigned (double-blind) to 6-12 months' treatment with placebo (PBO) or carvedilol (CRV). After a common screening period, patients with class II-IV CHF (see next paragraph for the definitions of the classification of CI) and an ejection fraction <0.35 were assigned to one of four protocols based on performance on a 6-minute walk test. PBO or CRV was added to existing therapy with digoxin, diuretics and an ACE inhibitor. All-cause mortality was monitored by a prospectively constituted Data and Safety Monitoring Board (DSMB). After 25 months of enrollment, the DSMB recommended termination of the program because of a favorable effect of CRV on survival. By […], mortality was 8.2% in the PBO group but only 2.9% in the CRV group (P=0.0001. Cochran-Mantel-Haensel analysis). This represented a reduction in risk of death by CRV of 67% (95% CI: 42% to 81%). The treatment effect was similar in patients with class II and class III-IV symptoms. Mortality was reduced in class II patients from 5.9% to 1.9%, a 68% reduction (95% CI: 20% to 97%) [P=0.015,), and in class III-IV patients from 11.0% to 4.2%. a 67% reduction (95% CI 30% to 84%), [P=0.004, a log-rank]. Importantly, the effect of CRV was similar in ischematic heart disease (risk reduced by 67%. P=0.003) and in nonischemic dilated cardiomyopathy (risk reduced by 67%. P=0.014). […] The treatment effect is seen across a broad range of severity and etiology of disease.
Patients on background therapy with diuretics. ACE inhibitors and/or digoxin were stratified on the basis of baseline […] exercise performance, into one of four trials: • study 220, a dose response study in moderate (NYHA II-IV) CHF with exercise testing as a primary endpoint • study 221, a dose titration study in moderate (NYHA II-IV) CI with exercise testing as a primary endpoint • study 239, a dose titration study in severe (NYHA III-IV) CHF with quality of life as a primary endpoint • study 240, a dose titration study in mild (NYHA II—III) CHF with progression of CHF as a primary endpoint
Sixty-four centers in the US participated in the trial program. All sites conducted protocols 239 and 240, while 33 performed protocol 220 and 31 performed protocol 221.
Although each trial had its own individual objectives, the overall program objective defined prospectively was evaluation of all-cause mortality. Based upon a projected enrollment of 1100 patients, the program had 90% power to detect a 50% reduction in mortality (two-sided) between carvedilol and placebo, assuming a mortality rate in the placebo group of 12% over the duration of the trials (α=0.05).
Randomization was preceded by a screening and challenge period common to the four protocols. The purpose of the screening period was to quality patients for study entry obtain reproducible baseline measurements, and stratify patients into the appropriate trial based on submaximal exercise testing. During the challenge period, patients received low-dose open-label carvedilol (6.25 mg b.i.d.) for two weeks. […] Patients tolerating low-dose carvedilol were then randomized to blinded medication (carvedilol or placebo) with the dose titrated over several weeks in the range of 6.25 to 50 mg b.i.d. (or equivalent level of placebo). The maintenance phase of each study ranged from six to 12 months, after which patients had the option of receiving open-label carvedilol in an extension study.
The analysis presented below corresponds to the data set on which the DSMB made the recommendation to terminate the trials. Included in this […] analysis are all patients enrolled in the US trials as of Jan. 20, […]; 624 receiving carvedilol and 356 placebo. […]

[2] = tested on: acute myocardial infarction; details: rat model of acute myocardial infarction; cited from earlier work
[3] = tested on: acute myocardial infarction; details: canine model of acute myocardial infarction; cited from earlier work
[4] = tested on: acute myocardial infarction; details: porcine model of acute myocardial infarction; cited from earlier work
patients with CHF [5] = details: treatment of CHF; cited from earlier work

Compound: COc1ccccc1OCCNCC(O)COc1cccc2[nH]c3ccccc3c12 (centres unmarked) [Carvedilol]
- Risk reduction of mortality (patients with CHF [1]; Class II CHF, 95% CI 20-97): 68%
- Risk reduction of mortality (patients with CHF [1]; Class II CHF, 95% CI 20-97, listed as CRV): 68%
- Mortality (%) (patients with CHF [1]; Class II CHF, placebo 5.9%): (1.9%)
- Mortality (%) (patients with CHF [1]; Class II CHF, placebo 5.9%, listed as CRV): 1.9%
- Risk reduction of mortality (patients with CHF [1]; Class III-IV CHF, 95% CI 30-84): 66%
- Risk reduction of mortality (patients with CHF [1]; Class III-IV CHF, 95% CI 30-84, listed as CRV): 67%
- Mortality (%) (patients with CHF [1]; Class III-IV CHF, placebo 11.0%): (4.2%)
- Mortality (%) (patients with CHF [1]; Class III-IV CHF, placebo 11.0%, listed as CRV): 4.2%
- Risk reduction of mortality (patients with CHF [1]; Ischemic Etiology, 95% CI 32-85): 67%
- Risk reduction of mortality (patients with CHF [1]; Ischemic Etiology, 95% CI 32-85, listed as CRV): 67%
- Mortality (%) (patients with CHF [1]; Ischemic Etiology, placebo 8.9%): (3.2%)
- Risk reduction of mortality (patients with CHF [1]; Non-Ischemic Etiology, 95% CI 20-86): 67%
- Risk reduction of mortality (patients with CHF [1]; Non-Ischemic Etiology, 95% CI 20-86, listed as CRV): 67%
- Mortality (%) (patients with CHF [1]; Non-Ischemic Etiology, placebo 7.3%): (2.5%)
- All Cause Mortality (%) (patients with CHF [1]): (2.9%)
- All Cause Mortality (%) (patients with CHF [1]; listed as CRV): 2.9%
- Risk reduction, All Cause Mortality (patients with CHF [1]): 67%
- Risk reduction, All Cause Mortality (patients with CHF [1]; listed as CRV): 67%
- infarct size [2]: markedly reduces infarct size
- infarct size [3]: markedly reduces infarct size
- infarct size [4]: markedly reduces infarct size

Compound: CC(C)NCC(O)COc1ccc(COCCOC(C)C)cc1 (centres unmarked) [bisoprolol]
- mortality, drug-treated vs placebo-treated patients (patients with CHF [5]): no difference in mortality

Compound: COCCc1ccc(OCC(O)CNC(C)C)cc1 (centres unmarked) [metoprolol]
- mortality, drug-treated vs placebo-treated patients (patients with CHF [5]): no difference in mortality
